Legend:
S. typhimurium TA100 = conditions: TA100 −S9
Procedure: (§1) Bacterial strains used were Salmonella typhimurium TA97a (National Center for Type Culture Collection NTCC, 506391), S. typhimurium TA98 (NTCC, 506392), S. typhimurium TA100 (NTCC, 506395), S. typhimurium TA1535 (NTCC, 506396), and Escherichia coli WP2 uvrA (CHI Scientific, Co., Ltd., product number: 6-1705). To prepare a drug delivery formulation, distilled water was used as a carrier to prepare a suspension (100 mg/mL) for a test item. […] Therefore, bacteria in samples for the test item were removed by a mechanical means. In the process of mixing the formulation, any soluble components for the test item was dissolved in the carrier, and then, residual bacteria were removed by centrifugation (4° C.; 8000 rpm; 10 min). After centrifugation, liquid supernatant was removed and sterile filtration was performed with a 0.22 μm filter.
(§2) In the confirmatory mutation research, detection was performed at 15.81, 50, 158.1, 500, 1581, and 5000 μg/plate. The maximum concentration was recommended by current regulations and guidelines. […] The survival rate of test bacterial cells was checked through plate experiments in each test. If there is a dosage-related increase in the number of revertants, it is considered that the test item has mutagenicity, and/or a reproducible biology-related positive reaction targeting at least one dosage group occurs in at least one strain with or without metabolic activation.

[1] = test system: Escherichia coli WP2 uvrA; conditions: Escherichia coli WP2A uvr −S9
Procedure: as §1, §2

[2] = test system: Salmonella typhimurium TA97a; conditions: TA97a −S9
Procedure: as §1, §2

S. typhimurium TA98 = conditions: TA98 −S9
Procedure: as §1, §2

| SMILES | Number of revertant mutants per plate (mean ± standard deviation) (S. typhimurium TA100) | Number of revertant mutants per plate (mean ± standard deviation) [1] | Number of revertant mutants per plate (mean ± standard deviation) [2] | Number of revertant mutants per plate (mean ± standard deviation) (S. typhimurium TA98) |
| --- | --- | --- | --- | --- |
| COS(C)(=O)=O [Positive control 2, methyl methylsulfonate] | 1347.00 | 613.40 | – | – |
| CN(C)c1ccc(N=NS(=O)(=O)[O-])cc1.[Na+] [Positive control 1, fenaminosulf] | – | – | 1169.4 | 1525.00 |
